Reference: patent US10407712B2, “Methods, compositions and kits for high throughput kinase activity screening using mass spectrometry and stable isotopes” (President and Fellows of Harvard College, priority 2008, dated 2019)

Columns and labels:
EGFR = molecular target: T1, EGFR (Homo sapiens, UniProt P00533); test: In vitro kinase reaction of H5 peptide with purified EGFR; type: biochemical
T1 construct: epidermal growth factor (EGF) receptor (EGFR, 672-1210); purchased Cell Signaling Technology (Danvers, Mass.)
Excerpt: (§1) FIG. 7D is a line graph showing in vitro phosphorylation of peptide H5 (SEQ ID NO: 87) using each of purified Src and EGFR.
(§2) Purified human active kinases of Akt1 (full length), extracellular signal-regulated kinase 1 (ERK1, 1-379), mitogen-activated protein kinase kinase 1 (MEK1, 1-393), 90 kDa ribosomal S6 kinases 1 (RSK1, 1-735), cAMP-dependent protein kinase (PKA) catalytic subunit-α (PKA Cα, 1-351), protein kinase Cα (PKCα, full length), epidermal growth factor (EGF) receptor (EGFR, 672-1210), platelet-derived growth factor (PDGF) receptor α (PDGFRα, 550-1090), vascular endothelial growth factor (VEGF) receptor 1 (VEGFR1 784-1338), Src (full length), casein kinase 2 (CK2, full length), Aurora A (1-403), AMP-activated protein kinase α1β1γ1 (AMPK α1β1γ1, full length), glycogen synthase kinase-3α (GSK-3α, 1-483) and MAP/microtubule affinity-regulating kinase 1 (MARK 1, full length) were obtained from Cell Signaling Technology (Danvers, Mass.). Cdc2/cyclin B1 (full length) and insulin-like growth factor (IGF)-I receptor (IGFIR, 959-1367) were obtained from Upstate (Temecula, Calif.).
(§3) In order to identify the kinase that phosphorylates p55 (Tyr-199) lysates of serum-starved HEK293 cells were used for insulin, IGF and EGF stimulation. […]

Src = molecular target: T2, Src (Homo sapiens, UniProt P12931); test: In vitro kinase reaction of H5 peptide with purified Src; type: biochemical
T2 construct: Src (full length); purchased Cell Signaling Technology (Danvers, Mass.)
Excerpt: as §1, §2, §3

HeLa cell lysates = test: KAYAK in vitro kinase assay, lysates of asynchronous, G1/S- or G2/M-arrested HeLa cells; type: biochemical, human
Description: For cell cycle examples, HeLa cells were synchronized by double thymidine block for G1/S-arrest and by 0.2 μg/ml nocodazole for G2/M-arrest as described (Dephoure et al. 2008 Proc Natl Acad Sci USA 105: 10762-10767). Synchronization was confirmed by flow cytometry.
For cell lysis, the media were removed, and cells were washed with ice-cold phosphate-buffered saline (PBS) and lysed with ice-cold lysis buffer (10 mM K2HPO4 pH 7.5, 1 mM EDTA, 10 mM MgCl2, 50 mM β-glycerophosphate, 5 mM EGTA, 0.5% Nonidet P-40, 0.1% Brij 35, 0.1% deoxycholic acid, 1mM sodium orthovanadate, 1mM phenylmethyl-sulfonyl fluoride, 5 μg/ml leupeptin and 5 μg/ml pepstatin A). Lysates were centrifuged at 10,000 rpm for 10 min to remove cell debris, and clear supernatant was used for immunoblotting and in vitro kinase assays. Protein concentration was determined by Bradford assay (Biorad, Hercules, Calif.).
Peptides were synthesized, purified and quantified as described in Yu et al. 2009 Proc Natl Acad Sci USA 106: 11606-11611, hereby incorporated by reference herein in its entirety. Each substrate peptide (250 pmol) was mixed to a final concentration of 5 μM in the 50 μL reaction mixture. Alternatively, reactions were performed using 6 μg cell lysate aliquotes mixed to a final volume of 20 μl. Cell lysate or other kinase source was added to the substrate mixture in 25 mM Tris-Cl, pH 7.5, containing 5 mM ATP, 7.5 mM MgCl2, 0.2 mM EGTA, 7.5 mM β-glycerophosphate, 0.1 mM Na3VO4, and 0.1 mM DTT. The reaction was incubated at 25° C. for 60 min and then terminated by the addition of 100 μl of 1% trifluoroacetic acid (TFA) containing a known amount of an internal standard (typically 20 pmol). Alternatively, the reaction was incubated at 20° C. for 45 min before termination with TFA.
Forty-five individual in vitro kinase reaction mixtures were combined and desalted by using Sep-Pak C18 cartridge (Waters, Milford, Mass.). Phosphopeptides were enriched by immobilized metal ion chromatography (IMAC) with 20 μl of beads (Phos-Select iron affinity gel; Sigma, St. Louis, Mo.) and subsequently desalted by using Empore C18 solid phase extraction disks (3M, St. Paul, Minn.) as described previously.
Quantitation of the target peptide-internal standard ratios was performed by first constructing the extracted ion chromatogram for the most abundant charge state for each peptide using a ±10 ppm window. Chromatograms were integrated using Qual/Quan browser (Xcalibur 2.0.5, Thermo Fisher, San Jose, Calif.). Since the phosphorylated peptides generated from the in vitro kinase reactions were chemically identical to the internal standards, they were assumed to have the same ionization efficiency. Therefore, the amount of each phosphorylated peptide was calculated by direct ratio to the internal standard level.
To test substrate suitability in a multiplexed assay, the phosphorylation activities were measured using […] of each substrate peptide, 6 μg lysate, and 5 mM ATP in a plate format. Reactions proceeded for 60 minutes followed by acidification and the addition of isotope-labeled reference peptides. After pooling 45 samples, phosphopeptide enrichment was followed by liquid-chromatography (LC) separation and on-line peptide detection by high-resolution mass spectrometry.
In order to examine target peptides with cell-cycle-dependent phosphorylation, kinase activities in asynchronously growing HeLa cells were profiled and the profiles were compared with those of cells synchronized in G1/S and G2/M phase using a double-thymidine block and nocodazole arrest, respectively (FIG. 3B).

Src family kinase = test: Immunoblot of HEK293 cells treated with Src family kinase inhibitor; type: cell-based, human; conditions: asynchronously growing HEK293 cells
Description: FIG. 7E is a photograph of immunoblot data of lysates following treatment of asynchronously growing HEK293 cells with Sic family kinase (SFK) specific inhibitor SU6656 in starved or serum-fed cells.
Lysates were resolved on 4 to 12% SDS/PAGE, transferred onto Potran membranes (Whatman), blocked with 3% milk in TBST (Tris Buffered Saline Tween-20), incubated with 1:1,000 dilution of primary antibody at 4° C. overnight, washed, and incubated with a 1:5,000 dilution of second antibody (HRP-conjugated) with 3% milk in TBST for 1 h at room temperature. Bands were visualized with ECL solution (Roux et al. 2004 Proc Natl Acad Sci USA 101: 13489-[…]).
To further investigate whether this is a Src-dependent site in vivo, asynchronously growing HEK293 cells were treated with the specific Src family kinase inhibitor, Su6656. […] Further, MCF10A cells expressing v-Src:estrogen receptor (Reginato et al. 2005 Mol Cell Biol 25: 4591-4601) were treated with 1 μM 4-hydroxytamoxifen (4-HT) to activate v-Src as a function of time (FIG. 7F).

Molecule	phosphorylation by EGFR (EGFR)	phosphorylation by Src (Src)	increase in phosphorylation in G2/M (HeLa cell lysates; G2/M (nocodazole-arrested) HeLa lysate vs asynchronously growing cells) [fold]	G2/M: changed phosphorylation (HeLa cell lysates; G2/M phase compared to asynchronously growing HeLa cells)	level of phospho-Src (Tyr-416) (Src family kinase)	level of phospho-p55 (Tyr-199) (Src family kinase)
EYDRLYEEYTPFR (The sequence was designed and synthesized) [H5]	not	robust phosphorylation	13	++ (A change of more than +4 and −4 fold is indicated by “++” and “−−”, respectively.)		
CN(C)S(=O)(=O)c1ccc2c(c1)/C(=C/c1cc3c([nH]1)CCCC3)C(=O)N2 [Su6656, SU6656]					diminished	diminished
